Columns and labels:
[1] = Drug elution from coated stents into physiologic saline solution (spectrophotometric assay); type: physicochemical; conditions: Bx Velocity (316L) and Smart (nitinol) stents with Ni-P coating, physiologic saline changed daily (FIGS. 6 and 7)
Description: Coated stents were formed using the same basic electroless deposition procedure in Example 1. However, in this example, instead of foil substrates, Johnson and Johnson Bx velocity stents (stainless steel) and Johnson and Johnson Smart stents (nitinol) were used as substrates. Bioactive composite structures in the form of layers were formed on the stents.
The amounts on the y-axis of the graphs represent the amount of bioactive material remaining on the stent after elution into a physiologic saline solution.
A similar anodization process as was used in the stent examples as was again applied to the foil substrates. After coating, the coated stent was placed in a physiologic saline solution and the solution changed daily. On the indicated days, the stent coatings were anodized. The amount of bioactive material released in each case was determined using a spectrophotometric assay.

[2] = Optical absorbance of elution bath from coated 316L stainless steel sample in 0.9% saline; type: physicochemical; conditions: 1 cm2 316L stainless steel sample
Description: Table 3 depicts several experiments following the general procedures outlined in example 1, each with one time point and for a new bioactive material. M is the difference in absorbance between an elution bath from the sample containing the respective bioactive material and the absorbance from a sample with pure coating (i.e. control). In this instance, a 1 cm2 medical grade 316L stainless steel sample was coated using the above mentioned process.
M refers to the absorbance difference between coated with bioactive material and coated without bioactive material.

Row | ΔA (absorbance difference, coated with vs without bioactive material) ([2]; Time = 0, immediately after deposition) | ΔA (absorbance difference, coated with vs without bioactive material) ([2]; after seven days in 0.9% saline solution, characteristic absorbance wavelength in parentheses) | Molecule | time over which appreciable amounts were released [1] [days]
1 |  |  | O=c1[nH]cc(F)c(=O)[nH]1 [Fluorouracil, 5-fluorouracil] | 40
2 |  |  | albumin | 40
3 | 0 | 2.4 (230 nm) | heparin | 
